Measured values published in US4734493A, “Novel anthracycline antibiotics” (Sanraku, Incorporated, priority 1985, dated 1988).
In brackets after ≈: the same amount, converted by molar mass. Like-named read-outs stand apart in the source and are kept apart here.

Tests used:
murine L1210 leukemia = experiment: In vivo antitumor activity against murine L1210 leukemia in CDF1 mice
Description: The therapeutic effect of obelmycins were studied on CDF1 mice bearing L1210 leukemia, From 24 hours after 1×10^5 L1210 cells/animal were intraperitoneally transplanted to CDF1 mice, Obelmycins were intraperitoneally given everyday for 10 days. The prolongation of the survival time was calculated relative to control animals receiving physiological saline as 100.
Inoculation: 1×10^5 cells/mouse (ip)
Treatment: day 1 to 10, daily (ip)

[1] = system: DNA synthesis in mouse leukemia L1210 culture cell; experiment: Nucleic acid synthesis inhibiting action: DNA synthesis (14C-thymidine intake) in L1210 culture cells; assay type: cell-based; conditions: 1 h, 60 minutes, 10% bovine serum, 37° C., read-out: 50% Inhibiting Concentration (IC50), Inhibition of DNA Synthesis
Description: (§1) For example, […] of L1210 cells were inoculated, on RPM 11640 medium (Rosewellberg Research Institute) containing 20% bovine serum and the compound of the present invention was supplemented in a concentration of 0.0005 to 0.25 μg/ml followed by culturing at 37° C. in a carbon dioxide gas incubator. A 50% proliferation inhibiting concentration was determined as compared to control. Further the aforesaid L1210 culture cells were suspended in 8×10^5 cells/ml in RPM 11640 medium containing 10% bovine serum. After culturing at 37° C. for 1 to 2 hours in a carbon dioxide gas incubator, the compound of the present invention was supplemented in various concentrations. Fifteen minutes after, ^14 C-uridine (0.05 μCi/ml) or ^14 C-thymidine (0.05 μCi/ml) was added to the system followed by culturing at 37° C. for 60 minutes. To the reaction mixture was added chilled 10% trichloroacetic acid to discontinue the reaction. At the same time, insoluble matters were precipitated, further washed twice with chilled 5% trichloroacetic acid and then dissolved in formic acid to provide for measurement of the radioactivity. A 50% intake inhibiting concentration was determined from a rate of intake of the radioactivity in the control group added with no compound.

[2] = system: mouse leukemia L1210 culture cell; experiment: Proliferation inhibiting action against mouse leukemia L1210 culture cells; assay type: cell-based
Description: as §1

[3] = system: RNA synthesis in mouse leukemia L1210 culture cell; experiment: Nucleic acid synthesis inhibiting action: RNA synthesis (14C-uridine intake) in L1210 culture cells; assay type: cell-based; conditions: 1 h, 60 minutes, 10% bovine serum, 37° C., read-out: 50% Inhibiting Concentration (IC50), Inhibition of RNA Synthesis
Description: as §1

[4] = L1210 cells, RPM 11640 medium with 20% bovine serum, 37° C., read-out: 50% Inhibiting Concentration (IC50), Inhibition of Cell Proliferation
[5] = dose 3.1 μg/kg/day ip, daily day 1 to 10, CDF1 mice n=6, survival time relative to saline control as 100
[6] = L1210, read-out: 50% Inhibiting Concentration (IC50), Inhibition of Cell Proliferation

Structure (SMILES) | Antitumor effect T C (%) (murine L1210 leukemia; ip, 0.1 mg/kg, 24 h) | IC50 [1] [µg/mL] | IC50 [2, 4] [µg/mL] | IC50 [3] [µg/mL] | Antitumor effect T C (%) (murine L1210 leukemia; [5]) | IC50 [2, 6] [µg/mL] | Antitumor effect T C (%) (murine L1210 leukemia; dose 12.5 μg/kg/day ip, daily day 1 to 10, CDF1 mice n=6, survival time relative to saline control as 100) | Antitumor effect T C (%) (murine L1210 leukemia; ip, 0.025 mg/kg, 24 h) | Antitumor effect T C (%) (murine L1210 leukemia; dose 200 μg/kg/day ip, daily day 1 to 10, CDF1 mice n=6, survival time relative to saline control as 100)
CCC1(O)CC(OC2CC(N(C)C)C(O)C(C)O2)c2c(O)c3c(c(O)c2C1O)C(=O)c1c(O)ccc(O)c1C3=O (stereo not shown) [Obelmycin A] | 185 | 0.58 (≈ 1.04 µM) | 0.001 (≈ 0.00179 µM) | 0.14 (≈ 0.25 µM) | – | – | – | – | –
CCC1(O)CC(OC2CC(N(C)C)C(OC3CCC(OC4CCC(O)C(C)O4)C(C)O3)C(C)O2)c2c(O)c3c(c(O)c2C1OC1CC(N(C)C)C(OC2CCC(OC4CCC(O)C(C)O4)C(C)O2)C(C)O1)C(=O)c1c(O)ccc(O)c1C3=O (stereo not shown) [Obelmycin B] | – | 0.26 (≈ 0.222 µM) | – | 0.025 (≈ 0.0213 µM) | 150 | 0.0009 (≈ 0.000767 µM) | – | – | –
CCC1(O)CC(OC2CC(N(C)C)C(OC3CC(O)C(OC4CCC(O)C(C)O4)C(C)O3)C(C)O2)c2c(O)c3c(c(O)c2C1OC1CC(N(C)C)C(OC2CCC(OC4CCC(O)C(C)O4)C(C)O2)C(C)O1)C(=O)c1c(O)ccc(O)c1C3=O (stereo not shown) [Obelmycin C] | – | 0.38 (≈ 0.32 µM) | – | 0.043 (≈ 0.0362 µM) | 145 | 0.001 (≈ 0.000841 µM) | – | – | –
CCC1(O)CC(OC2CC(N(C)C)C(OC3CC(O)C(OC4CCC(O)C(C)O4)C(C)O3)C(C)O2)c2c(O)c3c(c(O)c2C1OC1CC(N(C)C)C(OC2CC(O)C(OC4CCC(O)C(C)O4)C(C)O2)C(C)O1)C(=O)c1c(O)ccc(O)c1C3=O (stereo not shown) [Obelmycin D] | – | 1.2 (≈ 0.996 µM) | – | 0.175 (≈ 0.145 µM) | 140 | 0.004 (≈ 0.00332 µM) | – | – | –
CCC1(O)CCc2c(O)c3c(c(O)c2C1OC1CC(N(C)C)C(OC2CCC(OC4CCC(O)C(C)O4)C(C)O2)C(C)O1)C(=O)c1c(O)ccc(O)c1C3=O (stereo not shown) [Obelmycin E] | – | 1.3 (≈ 1.68 µM) | – | 0.78 (≈ 1.01 µM) | – | 0.062 (≈ 0.0803 µM) | 135 | – | –
CCC1(O)CCc2c(O)c3c(c(O)c2C1OC1CC(N(C)C)C(OC2CC(O)C(OC4CCC(O)C(C)O4)C(C)O2)C(C)O1)C(=O)c1c(O)ccc(O)c1C3=O (stereo not shown) [Obelmycin F] | – | 1.43 (≈ 1.82 µM) | 0.092 (≈ 0.117 µM) | 0.6 (≈ 0.762 µM) | – | – | – | 130 | –
CCC1(O)CCc2c(O)c3c(c(O)c2C1OC1CC(N(C)C)C(O)C(C)O1)C(=O)c1c(O)ccc(O)c1C3=O (stereo not shown) [Obelmycin G] | – | 1.5 (≈ 2.76 µM) | 0.2 (≈ 0.368 µM) | 1.1 (≈ 2.02 µM) | – | – | – | – | 145
